Measured values: ChEMBL document CHEMBL1201862, “PubChem BioAssay data set” (2004)
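48-hour exposure; five concentrations; linearly interpolated endpoints. Abbreviation: GI50, concentration required for 50% inhibition of growth.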 Calls of active or inactive are those of the source. Rule as the data show it: active = GI50 up to about 1.1 µM and inactive = higher.

Assays:
Assay in all cases: DTP human tumour cell line panel, 48 h
RXF 393 = tested on: RXF 393
UACC-62 = tested on: UACC-62
CAKI-1 = tested on: CAKI-1
EKVX = tested on: EKVX
KM12 = tested on: KM12
DU-145 = tested on: DU-145
HCT-116 = tested on: HCT-116
M14 = tested on: M14
SK-MEL-2 = tested on: SK-MEL-2
OVCAR-5 = tested on: OVCAR-5
MDA-N = tested on: MDA-N
COLO 205 = tested on: COLO 205
A549 = tested on: A549
IGROV-1 = tested on: IGROV-1
LOX IMVI = tested on: LOX IMVI
UACC-257 = tested on: UACC-257
ACHN = tested on: ACHN
NCI-H460 = tested on: NCI-H460
Hs-578T = tested on: Hs-578T

Measured: GI50

CCOC(=O)COc1cc(-c2ccccc2)nc2cc(F)ccc12
inactive: RXF 393 > 100 µM | UACC-62 > 100 µM | CAKI-1 > 100 µM | EKVX > 100 µM | KM12 > 100 µM | DU-145 > 100 µM | HCT-116 > 100 µM | M14 > 100 µM | SK-MEL-2 > 100 µM | OVCAR-5 > 100 µM | MDA-N > 100 µM | COLO 205 > 100 µM | A549 > 100 µM | IGROV-1 > 100 µM | LOX IMVI > 100 µM | UACC-257 > 100 µM

Clc1ccc(Cl)c(SCCCN2CCNCC2)c1
inactive: RXF 393 14.4 µM | UACC-62 2.61 µM | CAKI-1 17.8 µM | EKVX 16.9 µM | KM12 25.5 µM | DU-145 15.8 µM | HCT-116 18.3 µM | M14 17.3 µM | ACHN 15.1 µM | OVCAR-5 15.5 µM | COLO 205 16.2 µM | A549 20.6 µM | NCI-H460 18.4 µM | Hs-578T 16.1 µM | IGROV-1 18.2 µM | LOX IMVI 14.9 µM | UACC-257 11.7 µM

COc1ccc(CCc2nccn2C)cc1OC
inactive: UACC-62 > 100 µM | CAKI-1 > 100 µM | EKVX > 100 µM | HCT-116 > 100 µM | M14 > 100 µM | ACHN > 100 µM | SK-MEL-2 > 100 µM | OVCAR-5 > 100 µM | MDA-N > 100 µM | COLO 205 > 100 µM | A549 > 100 µM | NCI-H460 > 100 µM | Hs-578T > 100 µM | IGROV-1 > 100 µM | LOX IMVI > 100 µM | UACC-257 > 100 µM

O=C1/C(=C/c2ccc(O)cc2)NC(=S)N1CN1CCCCC1
inactive: UACC-62 42.9 µM | EKVX > 100 µM | KM12 > 100 µM | DU-145 57.1 µM | HCT-116 45.8 µM | M14 59.2 µM | ACHN 45.7 µM | SK-MEL-2 > 100 µM | OVCAR-5 > 100 µM | MDA-N > 100 µM | COLO 205 21 µM | A549 > 100 µM | Hs-578T 85.5 µM | IGROV-1 98.9 µM | LOX IMVI 40.1 µM

COc1cccc(C2SC(=N)Nc3c2c(C)nn3C(=O)c2ccccc2O)c1 (stereo not given)
inactive: RXF 393 2.14 µM | UACC-62 1.76 µM | CAKI-1 > 10 µM | EKVX > 9.14 µM | KM12 > 2.79 µM | DU-145 > 2.44 µM | HCT-116 > 2.14 µM | M14 > 5.47 µM | ACHN 1.77 µM | SK-MEL-2 > 7.23 µM | OVCAR-5 > 6.73 µM | MDA-N > 2.28 µM | COLO 205 > 6.4 µM | A549 1.75 µM | NCI-H460 3.22 µM | IGROV-1 > 2.11 µM | LOX IMVI > 4.26 µM | UACC-257 2.68 µM

CCOC(=O)CCC(NC(=O)C(N)c1ccc([N+](=O)[O-])cc1)C(=O)NC(CCC(=O)OCC)C(=O)OCC (stereo not given)
inactive: UACC-62 > 100 µM | EKVX > 100 µM | KM12 > 100 µM | HCT-116 > 100 µM | M14 > 100 µM | ACHN > 100 µM | SK-MEL-2 > 100 µM | OVCAR-5 > 100 µM | MDA-N > 100 µM | COLO 205 > 100 µM | A549 > 100 µM | NCI-H460 > 100 µM | Hs-578T > 100 µM | IGROV-1 > 100 µM | UACC-257 > 100 µM

CC1=CC(=O)C(C)(C2=NC(C)(C)CO2)c2ccccc21 (stereo not given)
inactive: RXF 393 > 100 µM | UACC-62 > 100 µM | CAKI-1 > 100 µM | EKVX > 100 µM | KM12 > 100 µM | HCT-116 > 100 µM | M14 > 100 µM | ACHN > 100 µM | SK-MEL-2 > 100 µM | COLO 205 > 100 µM | A549 > 100 µM | NCI-H460 > 100 µM | IGROV-1 > 100 µM | UACC-257 > 100 µM

CCNCC(O)c1ccc(N)c([N+](=O)[O-])c1 (stereo not given)
inactive: UACC-62 > 100 µM | CAKI-1 > 100 µM | EKVX > 100 µM | DU-145 > 100 µM | HCT-116 > 100 µM | M14 > 100 µM | ACHN > 100 µM | SK-MEL-2 > 100 µM | OVCAR-5 > 100 µM | MDA-N > 100 µM | COLO 205 > 100 µM | A549 > 100 µM | NCI-H460 > 100 µM | Hs-578T > 100 µM | IGROV-1 > 100 µM | LOX IMVI > 100 µM | UACC-257 > 100 µM

COC(=O)[C@]1(C)CCC[C@@]2(C)C1CC[C@]13C=C(C(C)C)[C@H](CC21)CC3(Cl)C#N (stereo not given in full)
inactive: RXF 393 24.8 µM | UACC-62 37.7 µM | CAKI-1 66.1 µM | EKVX 31.5 µM | KM12 38.1 µM | DU-145 43.5 µM | HCT-116 14.9 µM | M14 38.4 µM | ACHN 43.9 µM | OVCAR-5 > 100 µM | COLO 205 41.6 µM | A549 57.5 µM | NCI-H460 41.7 µM | Hs-578T > 100 µM | IGROV-1 > 100 µM | UACC-257 27.7 µM

Cc1c(Cl)cccc1/N=N/C(=O)NNc1cccc(Cl)c1C
inactive: UACC-62 11.9 µM | DU-145 14.4 µM | HCT-116 15.3 µM | M14 19.2 µM | ACHN 20.1 µM | SK-MEL-2 13.6 µM | OVCAR-5 14.1 µM | MDA-N 17.2 µM | A549 16.9 µM | NCI-H460 16.6 µM | IGROV-1 6.37 µM | LOX IMVI 21.3 µM | UACC-257 23.1 µM

O=S1OC2(c3ccccc3-c3ccccc32)c2ccccc21 (stereo not given)
inactive: RXF 393 53 µM | UACC-62 > 100 µM | EKVX > 100 µM | KM12 > 100 µM | HCT-116 > 100 µM | M14 > 100 µM | ACHN > 100 µM | OVCAR-5 > 100 µM | COLO 205 > 100 µM | A549 > 100 µM | NCI-H460 > 100 µM | IGROV-1 > 100 µM | LOX IMVI > 100 µM | UACC-257 > 100 µM

Cc1ccc(-c2c(C#N)c(-c3ccc(Cl)cc3)c(C#N)c(=O)n2NS(=O)(=O)c2ccccc2)cc1
inactive: RXF 393 32 µM | UACC-62 58.6 µM | CAKI-1 37.2 µM | EKVX 77.4 µM | KM12 81.7 µM | HCT-116 59 µM | M14 > 100 µM | ACHN 46.9 µM | SK-MEL-2 25.7 µM | OVCAR-5 > 100 µM | MDA-N > 100 µM | COLO 205 > 100 µM | A549 68.4 µM | NCI-H460 44.4 µM | Hs-578T 24.4 µM | IGROV-1 33 µM | LOX IMVI 42.3 µM | UACC-257 > 100 µM

O=S(=O)(c1ccccc1)C1(CCC2OCCO2)C=CC2(CC1)OCCO2 (stereo not given)
inactive: UACC-62 > 100 µM | EKVX > 100 µM | DU-145 > 100 µM | HCT-116 > 100 µM | M14 > 100 µM | ACHN > 100 µM | OVCAR-5 > 100 µM | MDA-N > 100 µM | COLO 205 > 100 µM | A549 > 100 µM | NCI-H460 > 100 µM | IGROV-1 > 100 µM | UACC-257 > 100 µM

N#Cc1c(N)c(C(=O)O)nn(-c2cccc(C(F)(F)F)c2)c1=O
inactive: RXF 393 52.5 µM | UACC-62 76.9 µM | CAKI-1 > 100 µM | EKVX 33.6 µM | KM12 > 100 µM | HCT-116 > 100 µM | M14 > 100 µM | ACHN > 100 µM | SK-MEL-2 > 100 µM | OVCAR-5 > 100 µM | COLO 205 > 100 µM | A549 > 100 µM | NCI-H460 > 100 µM | IGROV-1 > 100 µM | LOX IMVI > 100 µM

COc1ccc(NC(C)=O)cc1C1CCC(=O)N1 (stereo not given)
inactive: UACC-62 > 100 µM | CAKI-1 > 100 µM | EKVX > 100 µM | KM12 > 100 µM | DU-145 > 100 µM | HCT-116 > 100 µM | M14 > 100 µM | ACHN > 100 µM | SK-MEL-2 > 100 µM | OVCAR-5 > 100 µM | COLO 205 > 100 µM | A549 > 100 µM | NCI-H460 > 100 µM | Hs-578T > 100 µM | IGROV-1 > 100 µM | LOX IMVI > 100 µM | UACC-257 > 100 µM

O=CC[C@H]1CCc2ccccc2C12CCC(=O)CC2
inactive: UACC-62 92 µM | CAKI-1 > 100 µM | KM12 82.8 µM | HCT-116 39.3 µM | M14 86.3 µM | ACHN > 100 µM | SK-MEL-2 > 100 µM | OVCAR-5 > 100 µM | COLO 205 94.2 µM | A549 55.7 µM | NCI-H460 > 100 µM | IGROV-1 > 100 µM | LOX IMVI 62.7 µM | UACC-257 60.8 µM

NCc1ccc(-c2ccc(CN)s2)s1
inactive: RXF 393 > 100 µM | UACC-62 14.6 µM | CAKI-1 > 100 µM | EKVX > 100 µM | KM12 > 100 µM | DU-145 > 100 µM | HCT-116 > 100 µM | M14 > 100 µM | ACHN > 100 µM | SK-MEL-2 > 100 µM | OVCAR-5 56.2 µM | MDA-N > 100 µM | COLO 205 23 µM | A549 > 100 µM | IGROV-1 10.9 µM | LOX IMVI > 100 µM | UACC-257 42.4 µM
